# Reference: patent publication US11576859B2, “Gastric residence systems for sustained release of therapeutic agents and methods of use thereof” (Lyndra Therapeutics, Inc., priority 2015, dated 2023)
# Assays:
# physchem [1] = conditions: water, thermodynamic from solid
# Excerpt: First, various surfactants were screened for their ability to improve aripiprazole solubility in FaSSGF and water. Equilibrium solubility of aripiprazole in the presence of surfactants was estimated in water and FaSSGF by the procedure described in Example 50.
# [2] = Time dependent thermal processing stability of aripiprazole at 100 °C; conditions: for Visual Observation / Impurity % 0.86 RRT: extruded at 100 °C
# [3] = method not given; cited from earlier work
# physchem [4] = conditions: thermodynamic from solid
# [5] = PCL/SGF partition coefficient; assay type: physicochemical; conditions: 5:1 PCL diol (MW 530):ethyl acetate versus FaSSGF
# Method: Partitioning of active pharmaceutical ingredient (API) between the structural polymer, polycaprolactone (PCL), and fasted state simulated gastric fluid (FaSSGF) is of interest for predicting API release rate from PCL-based formulations. To measure the PCL-SGF partition coefficient of an API, a concentrated stock solution of API was added to a mixture of 1 mL FaSSGF and 1 mL of 5:1 PCL diol (MW 530):ethyl acetate. The sample was vortexed and centrifuged at 10000 rpm for 5 minutes. The SGF phase was analyzed by HPLC to measure drug concentration. The PCL phase was diluted in methanol prior to quantification on HPLC.
# [6] = Aripiprazole stability versus processing temperature
# [7] = Rosuvastatin forced degradation in solution and in polycaprolactone formulation; assay type: physicochemical; conditions: Heat: 1 mg/mL drug in DMSO, 1 h
# [8] = as above; assay type: physicochemical
# Method: SOLUTION CONDITIONS: For acid degradation studies, rosuvastatin was dissolved to 1 mg/mL in 0.1M HCl and heated for the specified time and temperature. For alkaline degradation, rosuvastatin was dissolved to 1 mg/mL in 0.1M NaOH and heated to 80° C. for 1 h. For oxidative degradation, rosuvastatin was dissolved to 1 mg/mL in 30% hydrogen peroxide and heated to 80° C. for 30 min. For stability over time, rosuvastatin was dissolved to 1 mg/mL in water at room temperature for 5 days. For thermal degradation studies in solution, rosuvastatin was dissolved to 1 mg/mL in dimethylsulfoxide and heated to the specified temperature for 2 h. In each case, samples of the solution were diluted in methanol and analyzed by LCMS to determine the ratio of intact drug to degraded drug.
# POLYMER CONDITIONS: For thermal degradation studies in formulation, rosuvastatin was blended with PCL at a ratio of 25:75 drug:PCL and the blend was heated to the specified temperature for 2 h. The drug-polymer blend was then dissolved in dichloromethane and this solution was added to excess methanol to precipitate PCL. Samples of the methanol solution were then analyzed by LCMS to determine the ratio of intact drug to degraded drug.
# [9] = oral, once daily; cited from earlier work
# [10] = extruded at 90 °C, same formulation
# [11] = extruded at 100 °C, same formulation
# [12] = extruded at 120 °C, same formulation
# [13] = extruded at 140 °C, same formulation
# [14] = extruded at 160 °C, same formulation
# [15] = extruded at 180 °C, same formulation
compound,measurement,setting,value
O=C1CCc2ccc(OCCCCN3CCN(c4cccc(Cl)c4Cl)CC3)cc2N1 [Aripiprazole],solubility,physchem [1],~0.456 µg/mL
same,degradation at 100 °C at all the timepoints,"[2]; 5 to 30 minutes extrusion, same formulation",no significant degradation
same,Visual Observation,"[2]; 5 min, 75 rpm, 20% aripiprazole/10% Kolliphor P407/10% Eudragit EPO/80 K PCL formulation",White colored extrudate
same,Impurity % 0.86 RRT,"[2]; 5 min, same formulation",0.08%
same,Impurity % 0.86 RRT,"[2]; 10 min, same formulation",0.08%
same,Visual Observation,"[2]; 10 min, same formulation",White colored extrudate
same,Impurity % 0.86 RRT,"[2]; 15 min, same formulation",0.08%
same,Visual Observation,"[2]; 15 min, same formulation",White colored extrudate
same,Impurity % 0.86 RRT,"[2]; 20 min, same formulation",0.08%
same,Visual Observation,"[2]; 20 min, same formulation",White colored extrudate
same,Impurity % 0.86 RRT,"[2]; 30 min, same formulation",0.08%
same,Visual Observation,"[2]; 30 min, same formulation",White colored extrudate
same,LogP (Octanol/water),[3],5.59
same,solubility,"physchem [4]; pH 1.06, simulated gastric fluid",500 µg/mL
same,solubility,"physchem [4]; pH 3, aqueous buffer",120 µg/mL
same,solubility,"physchem [4]; pH 4.65, aqueous buffer",110 µg/mL
same,LogP (PCL/SGF),[5],1.67
same,PCL/SGF Partition Coefficient,[5],49
same,Visual Observation,"[6]; extruded at 90 °C, 10 min batch mixing 75 rpm, 20% Aripiprazole/10% Kolliphor P407/10% Eudragit EPO/80 K PCL formulation",White
same,% Impurity Total,[6]; [10],<0.05%
same,% Impurity at RRT 0.64,[6]; [10],<0.05%
same,% Impurity Total,[6]; [11],<0.05%
same,% Impurity at RRT 0.64,[6]; [11],<0.05%
same,Visual Observation,[6]; [11],White
same,% Impurity Total,[6]; [12],<0.05%
same,% Impurity at RRT 0.64,[6]; [12],<0.05%
same,Visual Observation,[6]; [12],White
same,% Impurity Total,[6]; [13],0.14%
same,% Impurity at RRT 0.64,[6]; [13],<0.05%
same,% Impurity at RRT 0.86,[6]; [13],0.14%
same,Visual Observation,[6]; [13],Slight pink
same,% Impurity Total,[6]; [14],0.21%
same,% Impurity at RRT 0.22,[6]; [14],0.08%
same,% Impurity at RRT 0.42,[6]; [14],0.08%
same,% Impurity at RRT 0.64,[6]; [14],0.05%
same,Visual Observation,[6]; [14],Brown
same,% Impurity Total,[6]; [15],0.60%
same,% Impurity at RRT 0.22,[6]; [15],0.28%
same,% Impurity at RRT 0.42,[6]; [15],0.12%
same,% Impurity at RRT 0.64,[6]; [15],0.07%
same,% Impurity at RRT 0.71,[6]; [15],<0.05%
same,% Impurity at RRT 0.81,[6]; [15],0.05%
same,% Impurity at RRT 0.93,[6]; [15],0.08%
same,Visual Observation,[6]; [15],Brown
CC12CC3CC(C)(C1)CC(N)(C3)C2 [Memantine],LogP (PCL/SGF),[5],−0.56
same,PCL/SGF Partition Coefficient,[5],0.28
Cc1nc2n(c(=O)c1CCN1CCC(c3noc4cc(F)ccc34)CC1)CCCC2 [Risperidone],PCL/SGF Partition Coefficient,[5],0.03
CC(C)c1nc(N(C)S(C)(=O)=O)nc(-c2ccc(F)cc2)c1/C=C/[C@@H](O)C[C@@H](O)CC(=O)[O-].CC(C)c1nc(N(C)S(C)(=O)=O)nc(-c2ccc(F)cc2)c1/C=C/[C@@H](O)C[C@@H](O)CC(=O)[O-].[Ca+2] [Rosuvastatin calcium],% Intact drug,[7]; 100 C.,86%
same,% Intact drug,[7]; 120 C.,>95%
same,% Intact drug,"[8]; Acid: 0.1N HCl, 37 C., 2 d",66%
same,% Intact drug,"[8]; Acid: 0.1N HCl, 37 C., overnight, 1 mg/mL",87%
same,% Intact drug,"[8]; Acid: 0.1N HCl, 50 C., 4 h",93%
same,% Intact drug,"[8]; Acid: 0.1N HCl, 50 C., overnight",58%
same,% Intact drug,"[8]; Acid: 0.1N HCl, 80 C., 1 h",~100%
same,% Intact drug,"[8]; Base: 0.1M NaOH, 80 C., 1 h",~100%
same,% Intact drug,"[8]; Heat: 1 mg/mL drug in DMSO, 100 C., 2 h",86%
same,% Intact drug,"[8]; Heat: 1 mg/mL drug in DMSO, 120 C., 2 h",77%
same,% Intact drug,"[8]; Oxidation: 30% H2O2, 80 C., 30 min",~100%
same,% Intact drug,"[8]; Polymer-blended: 25% drug in polycaprolactone, 100 C., 2 h",>95%
same,% Intact drug,"[8]; Polymer-blended: 25% drug in polycaprolactone, 120 C., 2 h",>95%
same,% Intact drug,"[8]; Time: 1 mg/mL drug in water, room temperature, 5 days",62%
CC(C)c1nc(N(C)S(C)(=O)=O)nc(-c2ccc(F)cc2)c1/C=C/[C@@H](O)C[C@@H](O)CC(=O)O [Rosuvastatin],elimination half-life,[9],approximately 19 hours
same,acid stability in PCL formulation versus in solution,[8]; FIG. 20,protects the drug from acid degradation
same,thermal stability in PCL formulation versus in solution,[8]; FIG. 21,protects the drug from degradation at elevated temperatures
Doxycycline Hyclate,LogP (Octanol/water),[3],−1.9
same,LogP (PCL/SGF),[5],0.27
same,PCL/SGF Partition Coefficient,[5],1.88
Ivermectin,LogP (Octanol/water),[3],4.1
same,LogP (PCL/SGF),[5],2.60
same,PCL/SGF Partition Coefficient,[5],398
